In patent US20240245680A1, “Methods of Treating Retinal Vasculopathies” (Unity Biotechnology, Inc., priority 2021, published 2024):
“Also recorded” adds a separate entry of the source.

What was measured:
[1] = test system: ATF4 protein expression in retina; assay: Retinal ATF4 protein immunoblot after IP dosing, adult retinas; type: in vivo, mouse; conditions: IP 30 and 60 mpk, adult retinas 4 hours post administration, immunoblot vs Actinin (FIG. 11C)
Protocol: Intraperitoneally administered Compound 39 activated ATF4 protein expression at 30 and 60 mpk. Adult eye retinas were dissected 4 hours post Compound 39 administration and the harvested samples were kept on ice and homogenized using Precellys™ (500 μL tubes) tissue homogenizer in 300 μL MSD Tris Lysis buffer containing Pierce Protease Inhibitor Complete Mini tablet (ThermoScientific™ A32963). Homogenized samples were then centrifuged to separate supernatant from debris. Lysates were separated by SDS-PAGE and immunoblotted for ATF4 (D4B8) and control protein Actinin (Cell Signaling, cat. 3134S).

[2] = test system: ATF4 and DDIT3 gene expression in retina; assay: Retinal Atf4 and Ddit3 gene expression after IP dosing, normoxic and OIR neonatal mice; type: in vivo, mouse; conditions: IP 10, 30 or 90 mpk at P12, 4 or 24 hours
Protocol: (§1) Compound 39 was tested in an animal model that shares many hallmarks with human ischemic retinopathies, the oxygen-induced retinopathy (OIR) neonatal mouse. To investigate the pharmacodynamic effect of Compound 39, it was intraperitoneally (IP) administered at either 10, 30, or 90 mpk. The dosing formulation was based on a vehicle comprising 1% Pluronic F-68/1% HPMC, 15% captisol. Both normoxic and OIR neonates were treated at P12 (the end of hyperoxia) and taken down after 4 hours, or 24 hours later at P13. Retinas were dissected, and RNA was extracted using a fully automated, spin-column-based nucleic acid extraction instrument (Qiacube Connect™). qPCR was performed using standard TaqMan® reagents and conditions. Atf4, Ddit3, and Tbp (control) gene expression was determined using primers: Mm00515324_m1, Mm00492097_m1, and Mm01277042_m1, respectively.

[3] = test system: p-eIF2a, ATF4, DDIT3 (CHOP); assay: Immunoblot of p-eIF2a, ATF4 and DDIT3 in mouse embryonic fibroblasts; type: cell-based; conditions: MEF cells, 250 nM, five hours, immunoblot (FIG. 10B)
Protocol: Next, mouse embryonic fibroblasts (MEF) cells were cultured to near confluency and treated for five hours with a fixed concentration (250 nM) of Compound 39. Cells were harvested in LSD lysis buffer and homogenates were separated by SDS-PAGE. Immunoblotting was performed overnight using antibodies targeting p-eIF2a (Clone D9G8), ATF4 (Clone D4B8), and DNA damage inducible transcript 3 (DDIT3) (Clone 9C8). Compound 39 treatment increases the levels of phospho-eIF2a (p-eIF2a) as well as ATF4 and DDIT3 (CHOP).

OIR mouse model = assay: Oxygen-induced retinopathy (OIR) mouse model, retinal flatmounts at P17; type: in vivo; conditions: OIR pups, two 90 mpk intraperitoneal doses (P12 and P14), read at P17 (FIG. 14A, 15B)
From the text: The OIR model is based on the exposure of mouse pups to hyperoxia during a phase when their retinal vasculature is still developing. This leads to capillary depletion, and upon return to room air, results in retinal ischemia and proliferative vascular disease in the retinal vasculature or oxygen-induced retinopathy.
C57BL/6J pups at postnatal day 7 (P7) are housed in a hyperoxic chamber (75% O2) for 5 days (n=10 per cage) leading to vessel regression in the center of the retina. CD-1 fostering mothers are rotated before and 2-3 days after entering the chamber. […]
Retinas are dissected and incubated overnight with rhodamine-labeled lectin from Bandeiraea simplicifolia (Griffonia simplicifolia) (1:100) in 1 mM CaCl2) in PBS to visualize vaso-obliterated (VO) or neovascular (NV) areas. […] Images can be analyzed on Visiopharm® to determine % VO or % NV of total retina. […]
Avascular areas and areas of neovascularization were quantified after harvest and staining of retinal flatmounts at P17 in the model.
OIR pups were treated with intraperitoneal injection of 90 mpk Compound 39 at P12, then these pups were removed to room air with their nursing mothers, repeat dosed at P14, and were sacrificed at P17. […] To determine avascular or neovascular areas, retinas were flatmounted, and stained with isolectin B4 (IB4) for fluorescence microscopy. […]

[4] = test system: Slc7a11 and Serpinf1 gene expression in retina; assay: Retinal Slc7a11 and Serpinf1 gene expression after IP dosing, normoxic and OIR neonatal mice; type: in vivo, mouse; conditions: IP 10, 30 or 90 mpk at P12, 4 or 24 hours
Protocol: as §1, with “To” for “Compound 39 was tested in an animal model that shares many hallmarks with human ischemic retinopathies, the oxygen-induced retinopathy (OIR) neonatal mouse. To”, “administrated” for “(IP) administered”, “mpk in both normoxic and OIR neonatal mice.” for “mpk.”, “TaqMan” for “TaqMan®”, “Slc7a11, Serpinf1,” for “Atf4, Ddit3,”, “primers Mm00442530_m1, Mm00441270_m1,” for “primers: Mm00515324_m1, Mm00492097_m1,”

cellular ATF4 protein = assay: ATF4-HiBiT reporter assay in H2122 cells (GCN2 pathway activation); type: cell-based; conditions: five hours, quarter-log dilutions from 10 μM (FIG. 10A)
Protocol: Without any limitations, such assays may be used to test other compounds for GCN2 pathway activation. Activating transcription factor 4 (ATF4) was C-terminally tagged in H2122 cells (CRL-5985™) with a high affinity luciferase complementation fragment (HiBiT) through a knock-in approach using CRISPR-Cas12a technology and a single-stranded oligo DNA nucleotides (ssODNs) template carrying the HiBiT tag. Following reporter cell-line generation (H2122 ATF4-HiBIT) cells were seeded in a 96-well plate at near confluency and treated the next day with Compound 39 for five hours. A dose response was generated using quarter-log dilutions using 10 μM as the starting concentration. The Nano-Glo® HiBiT Lytic Detection (Promega®) reagent was added after five hours and allowed for plate-based bioluminescent quantification of cellular ATF4 protein using an add-mix-read assay format. Peak activation of ATF4 expression was detected at ˜250 nM of Compound 39.

**Q.** Which results are given for `CNc1nc2ccc(-c3c(C)ccc(C(=O)c4c(-c5ccccc5)n(C)n(-c5ccccc5)c4=O)c3N)cc2s1` [Compound 39, 4-(2-Amino-4-methyl-3-(2-(methylamino)benzo[d]thiazol-6-yl)benzoyl)-1-methyl-2,5-diphenyl-1H-pyrazol-3(2H)-one]?
**A.** levels of ATF4 protein in retina [1]: increased; induction of ATF4 gene expression in retina ([2]; normoxic and OIR neonates (FIG. 11A)): dose-dependent induction; induction of DDIT3 gene expression in retina ([2]; normoxic and OIR neonates (FIG. 11B)): dose-dependent induction; levels of ATF4 [3]: increases; levels of DDIT3 (CHOP) [3]: increases; levels of phospho-eIF2a (p-eIF2a) [3]: increases; neovascularization (OIR mouse model): significant reversal; also recorded: significantly suppressed; induction of retinal Slc7a11 gene expression ([4]; normoxic and OIR neonatal mice (FIG. 12A)): dose-dependent induction; induction of retinal Serpinf1 gene expression ([4]; normoxic and OIR neonatal mice (FIG. 12B)): dose-dependent induction; concentration of peak activation of ATF4 expression (cellular ATF4 protein): ~250 nM
